Molecules are shown by their SMILES.

The subject of one experiment is HCT-116 cells. Briefly: Inhibition of cell growth, MTT tetrazolium salt assay. The format is cell-based. The settings on record: Homo sapiens, 144 h, four to six days incubation; for IC50: first value of the cell, read-out: HCT116 IC50; for IC90: second value of the cell, 90% inhibition of growth, read-out: HCT116 IC90. The method, then:
Inhibition of Cell Growth: Assessment of Cytotoxicity:
Inhibition of cell growth was measured using the tetrazolium salt assay, which is based on the ability of viable cells to reduce 3-(4,5-dimethylthiazol-2-yl)-2,5-[2H]-diphenyltetrazolium bromide (MTT) to formazan (Mosmann, T. J. Immunol. Methods 1983, 65, 55-63). The water-insoluble purple formazan product was then detected spectrophotometrically. HCT-116 cells were grown in 96-well plates. Cells were plated in the appropriate medium at a volume of 135 μl/well in either McCoy's 5A Medium. Plates were incubated for 4 hours before addition of inhibitor compounds. Different concentrations of inhibitor compounds were added in 0.5% (v/v) dimethylsulfoxide (15 μL/well), and cells were incubated at 37° C. (5% CO2) for four to six days (depending on cell type). At the end of the incubation, MTT was added to a final concentration of 0.2 mg/mL, and cells were incubated for 4 hours more at 37° C. After centrifugation of the plates and removal of medium, the absorbance of the formazan (solubilized in dimethylsulfoxide) was measured at 540 nm. The concentration of inhibitor compound causing 50% (IC50) or 90% (IC90) inhibition of growth was determined from the linear portion of a semi-log plot of inhibitor concentration versus percentage inhibition. All results were compared to control cells treated only with 0.5% (v/v) dimethylsulfoxide.

Experiment [1] concerns the target T1, human CDK4 / truncated (1-264) cyclin D3 complex (Homo sapiens, UniProt P11802).
T1 construct: made in house; host or cells: insect cells (baculovirus co-infection)
Briefly: Inhibition of CDK4/Cyclin D retinoblastoma kinase activity. The experiment is classed as biochemical. The settings on record: Rb fragment substrate, enzyme complex 5 nM. The method, then: Inhibition of CDK4/Cyclin D Retinoblastoma Kinase Activity:
A complex of human CDK4 and genetically truncated (1-264) cyclin D3 was purified using traditional biochemical chromatographic techniques from insect cells that had been co-infected with the corresponding baculovirus expression vectors (see e.g., Meijer, L.; Kim, S.-H. In Methods Enzymol. 1997, 283, 113-128). The enzyme complex (5 nM) was assayed with 0.3-0.5 μg of purified recombinant retinoblastoma protein fragment (Rb) as a substrate. The engineered Rb fragment (residues 386-928 of the native retinoblastoma protein; 62.3 kDa) contains the majority of the phosphorylation sites found in the native 106-kDa protein, as well as a tag of six histidine residues for ease of purification. Phosphorylated Rb substrate was captured by microfiltration on a nitrocellulose membrane and quantified using a phosphorimager as described above. For measurement of tight-binding inhibitors, the assay duration was extended to 60 minutes, during which the time dependence of product formation was linear and initial rate conditions were met.

Experiment [2] deals with T2, CDK2 / proteolyzed cyclin A complex (Homo sapiens, UniProt P24941).
T2 construct: made in house; host or cells: CDK2: insect cells (baculovirus); cyclin A: E. coli, then limited proteolysis
Briefly: Inhibition of CDK2/Cyclin A retinoblastoma kinase activity. Conditions: Rb fragment substrate, CDK2 at 10 nM or 19 nM. The experiment is classed as biochemical. From the text: Inhibition of CDK2/Cyclin A Retinoblastoma Kinase Activity:
CDK2 was purified using published methodology (Rosenblatt, J.; De Bondt, H.; Jancarik, J.; Morgan, D. O.; Kim, S. H. J. Mol. Biol. 1993, 230, 1317-1319) from insect cells that had been infected with a baculovirus expression vector. Cyclin A was purified from E. coli cells expressing full-length recombinant cyclin A, and a truncated cyclin A construct was generated by limited proteolysis and purified as described previously (Jeffrey, P. D.; Russo, A. A.; Polyak, K.; Gibbs, E.; Hurwitz, J.; Massague, J.; Pavletich, N. P. Nature 1995, 376, 313-320.). A complex of CDK2 and proteolyzed cyclin A was prepared and purified by gel filtration. The substrate for this assay was the same Rb substrate fragment used for the CDK4 assays, and the methodology of the CDK2/delta cyclin A and the CDK4/delta cyclin D3 assays was essentially the same, except that CDK2 was present at 10 nM or 19 nM. The duration of the assay was 60 or 75 minutes, during which the time dependence of product formation was linear and initial rate conditions were met.

T1 sequence (P11802 whole entry, the tested form may be a part): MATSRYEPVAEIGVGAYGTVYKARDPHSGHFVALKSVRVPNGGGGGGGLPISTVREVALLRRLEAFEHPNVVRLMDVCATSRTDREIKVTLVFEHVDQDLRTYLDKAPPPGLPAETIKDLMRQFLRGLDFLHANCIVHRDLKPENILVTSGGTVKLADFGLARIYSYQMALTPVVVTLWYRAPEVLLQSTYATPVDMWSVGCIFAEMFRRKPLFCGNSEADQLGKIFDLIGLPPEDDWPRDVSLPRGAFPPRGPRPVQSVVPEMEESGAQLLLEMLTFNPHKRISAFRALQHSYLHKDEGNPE
T1 sequence (P30281 1-264 partner limits assumed): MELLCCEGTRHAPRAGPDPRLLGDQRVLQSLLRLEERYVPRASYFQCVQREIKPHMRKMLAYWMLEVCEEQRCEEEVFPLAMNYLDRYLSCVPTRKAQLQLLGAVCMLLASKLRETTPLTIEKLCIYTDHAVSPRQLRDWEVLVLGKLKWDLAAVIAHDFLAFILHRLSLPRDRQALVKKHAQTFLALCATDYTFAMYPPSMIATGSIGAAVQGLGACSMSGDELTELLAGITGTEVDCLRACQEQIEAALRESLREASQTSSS

With `Nc1nc(Nc2ccc(C(=O)Nc3ccccc3)cn2)sc1C(=O)c1c(F)cccc1F` [Example 1E, 6-[4-Amino-5-(2,6-difluoro-benzoyl)-thiazol-2-ylamino]-N-phenyl-nicotinamide], in the experiment with HCT-116 cells, the IC50 is 180 nM and the concentration for an effect of 90% (IC90) was found to be 400 nM. This compound also yielded an inhibition constant (Ki) in experiment [1] of 18 nM. In experiment [2], the Ki amounted to 17 nM.

As for `CCN1CCCC1CNC(=O)c1ccc(Nc2nc(N)c(C(=O)c3c(F)cccc3F)s2)nc1` (centres unmarked) [Example 1H, 6-[4-Amino-5-(2,6-difluoro-benzoyl)-thiazol-2-ylamino]-N-(1-ethyl-pyrrolidin-2-ylmethyl)-nicotinamide], the half-maximal inhibitory concentration (IC50) with HCT-116 cells is 32 nM. Further, the IC90 in the experiment with HCT-116 cells turned out to be 60 nM. Moreover, the inhibition constant Ki came out at 7.1 nM in experiment [1] and 43 nM in experiment [2].

With `Nc1nc(Nc2ccc(C(=O)NCCN3CCCC3)cn2)sc1C(=O)c1c(F)cccc1F` [Example 1J, 6-[4-Amino-5-(2,6-difluoro-benzoyl)-thiazol-2-ylamino]-N-(2-pyrrolidin-1-yl-ethyl)-nicotinamide], in the experiment on HCT-116 cells, the IC50 came to 17 nM and the IC90 amounted to 50 nM. The same compound showed a Ki in experiment [1] of 2.2 nM. Further, the Ki in experiment [2] was determined as 11 nM.

For the compound `CN1CCN(c2ccc(Nc3nc(N)c(C(=O)c4c(F)cccc4F)s3)nc2)CC1` [Example 2A, {4-Amino-2-[5-(4-methyl-piperazin-1-yl)-pyridin-2-ylamino]-thiazol-5-yl}-(2,6-difluoro-phenyl)-methanone], in the experiment on HCT-116 cells, the IC50 stood at 70 nM and the IC90 was 180 nM. The compound also had a Ki in experiment [1] of 1.1 nM. The compound further gave an inhibition constant (Ki) in experiment [2] of 32 nM.

Take `Nc1nc(Nc2ccc(C(=O)NCc3ccccn3)cn2)sc1C(=O)c1c(F)cccc1F` [Example 1C, 6-[4-Amino-5-(2,6-difluoro-benzoyl)-thiazol-2-ylamino]-N-pyridin-2-ylmethyl-nicotinamide]: the concentration for half-maximal inhibition (IC50) with HCT-116 cells was found to be 79 nM. Besides, in the experiment on HCT-116 cells, the concentration for an effect of 90% (IC90) turned out to be 210 nM. For the same compound, the Ki in experiment [1] is 12 nM; in experiment [2], 7.2 nM.

For `C[C@H](CN(C)C)NC(=O)c1ccc(Nc2nc(N)c(C(=O)c3c(F)cccc3F)s2)nc1` [Example 1I, 6-[4-Amino-5-(2,6-difluoro-benzoyl)-thiazol-2-ylamino]-N-(2-dimethylamino-1R-methyl-ethyl)-nicotinamide], in the experiment with HCT-116 cells, the IC50 amounted to 2.6 nM and the IC90 was 5.7 nM. Also, in experiment [1], the inhibition constant (Ki) was determined as 0.61 nM. The compound also showed a Ki in experiment [2] of 4.4 nM.

With `CN(C)CCNC(=O)c1ccc(Nc2nc(N)c(C(=O)c3c(F)cccc3F)s2)nc1` [Example 1K, 6-[4-Amino-5-(2,6-difluoro-benzoyl)-thiazol-2-ylamino]-N-(2-dimethylamino-ethyl)-nicotinamide], in the experiment on HCT-116 cells, the IC50 was found to be 8.8 nM and the IC90 was found to be 21 nM. Further, the inhibition constant (Ki) in experiment [1] came out at 1.4 nM. For the same compound, the inhibition constant Ki in experiment [2] was determined as 9.8 nM.

As for `Nc1nc(Nc2ccc(C(=O)Nc3ccccn3)cn2)sc1C(=O)c1c(F)cccc1F` [Example 1G, 6-[4-Amino-5-(2,6-difluoro-benzoyl)-thiazol-2-ylamino]-N-pyridin-2-yl-nicotinamide], in the experiment on HCT-116 cells, the IC50 is 170 nM. The IC90 in the experiment on HCT-116 cells was 36000 nM. Moreover, the Ki in experiment [1] was 35 nM; in experiment [2], 18 nM.

Regarding `CN1CCC[C@H]1CNC(=O)c1ccc(Nc2nc(N)c(C(=O)c3c(F)cccc3F)s2)nc1` [Example 1A], in the experiment on HCT-116 cells, the half-maximal inhibitory concentration (IC50) worked out at 7 nM and the IC90 was 170 nM. In experiment [1], this compound registered a Ki of 0.77 nM. For the same compound, the inhibitory constant (Ki) in experiment [2] is 7.3 nM.

Consider `CN(C)C1(CNC(=O)c2ccc(Nc3nc(N)c(C(=O)c4c(F)cccc4F)s3)nc2)CCC1` [Example 1B, 6-[4-Amino-5-(2,6-difluoro-benzoyl)-thiazol-2-ylamino]-N-(1-dimethylaminocyclobutylmethyl)-nicotinamide], for which, in the experiment on HCT-116 cells, the IC50 was found to be 5.8 nM and the IC90 turned out to be 20 nM. In addition, the affinity in experiment [1], expressed as Ki, was 2.7 nM. The same compound had an inhibition constant Ki in experiment [2] of 39 nM.

Consider `Nc1nc(Nc2ccc(C(=O)NCc3cccnc3)cn2)sc1C(=O)c1c(F)cccc1F` [Example 1D, 6-[4-Amino-5-(2,6-difluoro-benzoyl)-thiazol-2-ylamino]-N-pyridin-3-ylmethyl-nicotinamide], for which, in the experiment on HCT-116 cells, the half-maximal inhibitory concentration (IC50) amounted to 410 nM and the concentration for an effect of 90% (IC90) was greater than 5000 nM. The compound also displayed an inhibition constant (Ki) in experiment [1] of 6.6 nM. The same compound displayed a Ki in experiment [2] of 5.7 nM.

Regarding `C[C@H](CN(C)C)NC(=O)c1ccc(Nc2nc(N)c(C(=O)c3c(F)cccc3F)s2)cn1` [Example C1B, 5-[4-Amino-5-(2,6-difluoro-benzoyl)-thiazol-2-ylamino]-pyridine-2-carboxylic Acid (2-Dimethylamino-1R-methyl-ethyl)-amide, reference compound], the IC50 in the experiment on HCT-116 cells came out at 120 nM. Besides, the IC90 in the experiment on HCT-116 cells came out at 280 nM. In addition, the results for the Ki in experiment [1] and in experiment [2] were 120 nM and 400 nM, respectively.

On to `CNC(C)(C)CNC(=O)c1ccc(Nc2nc(N)c(C(=O)c3c(F)cccc3F)s2)nc1` [Example 1M], for which, in the experiment on HCT-116 cells, the half-maximal inhibitory concentration (IC50) is 70 nM and the IC90 stood at 250 nM. Further, the Ki in experiment [1] amounted to 2.3 nM. This compound also gave an inhibition constant (Ki) in experiment [2] of 35 nM.

In the case of `CN1CCC[C@H]1CNC(=O)c1ccc(Nc2nc(N)c(C(=O)c3c(F)cccc3F)s2)cn1` [Example C1A, 5-[4-Amino-5-(2,6-difluoro-benzoyl)-thiazol-2-ylamino]-pyridine-2-carboxylic acid (1-methyl-pyrrolidin-2S-ylmethyl)-amide, reference compound], in the experiment with HCT-116 cells, the half-maximal inhibitory concentration (IC50) is 230 nM and the concentration for an effect of 90% (IC90) worked out at 650 nM. In addition, the affinity in experiment [1], expressed as Ki, was 37 nM. For the same compound, the Ki in experiment [2] was found to be 320 nM.

Regarding `CN(C)C(C)(C)CNC(=O)c1ccc(Nc2nc(N)c(C(=O)c3c(F)cccc3F)s2)nc1` [Example 1L], in the experiment on HCT-116 cells, the IC50 is 2.5 nM and the IC90 was 8.5 nM. In experiment [1], this compound yielded an inhibition constant Ki of 1.3 nM. Moreover, the Ki in experiment [2] turned out to be 8.6 nM.

Turning to `Nc1nc(Nc2ccc(C(=O)NCCN3CCCCC3)cn2)sc1C(=O)c1c(F)cccc1F` [Example 1F, 6-[4-Amino-5-(2,6-difluoro-benzoyl)-thiazol-2-ylamino]-N-(2-piperidin-1-yl-ethyl)-nicotinamide], in the experiment with HCT-116 cells, the IC50 worked out at 17 nM and the IC90 was determined as 40 nM. In experiment [1], this compound yielded an inhibition constant (Ki) of 4.3 nM. In experiment [2], this compound registered a Ki of 18 nM.

On to `CNCCNC(=O)c1ccc(Nc2nc(N)c(C(=O)c3c(F)cccc3F)s2)nc1` [Example 3A], for which, in the experiment on HCT-116 cells, the IC50 came to 210 nM and the IC90 came to 700 nM. The inhibitory constant (Ki) in experiment [1] was determined as 3.3 nM. This compound also showed an inhibition constant Ki in experiment [2] of 21 nM.

The record behind these values is patent publication US20050176773A1, “Antiproliferative 2-(heteroaryl)-aminothiazole compounds and pharmaceutical compositions, and method for their use” (AGOURON PHARMACEUTICALS, INC., priority 2003, published 2005).
